Results reported in PMC11502443 (Frontiers in Pharmacology, 2024).
Where a chain is given by its changes, count along the chain named.

How the values were obtained:
[1] = molecular target: T1, human GIP receptor E354Q variant (Homo sapiens, UniProt P48546, E354Q); assay: CREB phosphorylation (AlphaLISA pCREB Ser133), E354Q GIP receptor; format: cell-based; conditions: read-out: Emax pCREB
T1 construct: expressed in transfected cells; host or cells: Cos7 cells, transient transfection with PEI, pcDNA3.1+; mutant plasmid made in house from the purchased WT construct
T1 sequence (P48546 22-466 E354Q): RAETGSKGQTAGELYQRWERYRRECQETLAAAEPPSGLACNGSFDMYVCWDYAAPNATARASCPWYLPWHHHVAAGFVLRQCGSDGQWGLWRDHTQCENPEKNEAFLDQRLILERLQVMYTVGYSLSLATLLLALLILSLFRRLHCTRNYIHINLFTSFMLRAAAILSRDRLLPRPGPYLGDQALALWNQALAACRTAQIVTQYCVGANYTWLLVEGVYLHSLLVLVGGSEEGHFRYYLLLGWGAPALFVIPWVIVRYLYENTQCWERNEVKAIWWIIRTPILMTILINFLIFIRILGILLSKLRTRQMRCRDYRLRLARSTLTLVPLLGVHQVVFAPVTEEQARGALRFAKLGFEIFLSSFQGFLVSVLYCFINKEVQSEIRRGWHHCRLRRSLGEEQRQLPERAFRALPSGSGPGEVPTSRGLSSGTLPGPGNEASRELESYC
Method: (§1) Using a PCR thermocycler (Applied Biosystems PCR system 9700, ThermoFisher, CA, United States), the DNA was initially denatured at 95°C for 2 min, followed by 25 cycles of 98°C for 30 s, 66°C for 15 s and 72°C for 3.5 min. Following the PCR reaction, 1 μL Dpn1 was added, and the DNA transformed into XL.10-gold Ultracompetent E. coli (Agilent Technologies, CA, United States). Plasmid DNA was purified using the NucleoBond Xtra Maxi kit (Macherey-Nagel, Germany) and sequenced prior to use (Centre for Genomics, Proteomics and Metabolomics, University of Auckland).
(§2) Cos7 cells were cultured and transfected as previously described ([Tasma et al., 2022]; [Bower et al., 2018]). Briefly, Cos7 cells were cultured in DMEM supplemented with 8% fetal bovine serum (FBS) in a 37°C humidified incubator with 5% CO2 and seeded into 96-well SpectraPlates at a density of 20,000 cells per well 24 h prior to transfection. […]
(§3) Phosphorylated (p) Protein Kinase B (AKT), extracellular signal-regulated kinase 1/2 (ERK1/2) and CREB were detected using the AlphaLISA SureFire Ultra pAKT (Ser473), AlphaLISA SureFire Ultra pERK1/2 (Thr202/Tyr204) or AlphaLISA SureFire Ultra pCREB (Ser133) assay kit (PerkinElmer) as per the manufacturer’s protocol. […] Plates were read on an Envision plate reader (PerkinElmer). […]
(§4) All data were plotted and analyzed using GraphPad Prism 8.0 (GraphPad Software Inc.). […]

[2] = molecular target: T1, human GIP receptor E354Q variant; assay: AKT phosphorylation (AlphaLISA pAKT Ser473), E354Q GIP receptor; format: cell-based; conditions: for Emax: read-out: Emax pAKT
Method: as §1
(§5) Cos7 cells were cultured and transfected as previously described ([Tasma et al., 2022]; [Bower et al., 2018]). Briefly, Cos7 cells were cultured in DMEM supplemented with 8% fetal bovine serum (FBS) in a 37°C humidified incubator with 5% CO2 and seeded into 96-well SpectraPlates at a density of 20,000 cells per well 24 h prior to transfection. […] All plasmid sequences were verified prior to use.
(§6) Phosphorylated (p) Protein Kinase B (AKT), extracellular signal-regulated kinase 1/2 (ERK1/2) and CREB were detected using the AlphaLISA SureFire Ultra pAKT (Ser473), AlphaLISA SureFire Ultra pERK1/2 (Thr202/Tyr204) or AlphaLISA SureFire Ultra pCREB (Ser133) assay kit (PerkinElmer) as per the manufacturer’s protocol. Briefly, Cos7 cells were serum-starved in assay media (DMEM +0.1% BSA) for 4 h at 37°C with 5% CO2 prior to peptide stimulation. Peptides were serially diluted in assay media, and cells were incubated with assay media alone or each concentration of peptide for 15 min. FBS (50%) in pERK1/2 and pAKT or 50 μM forskolin in pCREB assays were used as positive controls. Media was then aspirated, and the cells were lysed in 40 μL of the kit lysis buffer, followed by shaking for 10–15 min at room temperature. Ten microliters of cell lysate was transferred to a white 384-well OptiPlate. […] Plates were read on an Envision plate reader (PerkinElmer). […]
as §4

[3] = molecular target: T2, human WT GIP receptor (E354) (Homo sapiens, UniProt P48546); assay: CREB phosphorylation (AlphaLISA pCREB Ser133), WT GIP receptor; format: cell-based; conditions: for Emax: read-out: Emax pCREB
T2 construct: host or cells: Cos7 cells, transient transfection with PEI, pcDNA3.1+
T2 sequence (P48546 22-466): T1 sequence (P48546 22-466 E354Q) with Q333E
Method: as §1, §5, §6, §4

[4] = molecular target: T2, human WT GIP receptor (E354); assay: AKT phosphorylation (AlphaLISA pAKT Ser473), WT GIP receptor; format: cell-based; conditions: for Emax: read-out: Emax pAKT
Method: as §1, §5, §6, §4

[5] = molecular target: T2, human WT GIP receptor (E354); assay: IP1 accumulation (IP-one Gq kit), WT GIP receptor; format: cell-based
Method: as §1
Cos7 cells were cultured and transfected as previously described ([Tasma et al., 2022]; [Bower et al., 2018]). […]
The IP-one Gq assay kit (Cisbio, PerkinElmer) was used to quantify accumulated myo-inositol-1-phosphate (IP1), a by-product of IP3 produced after receptor-mediated Gαq activation in Cos7 cells, as previously described ([Tasma et al., 2022]; [Bower et al., 2018]). […] Samples were processed as previously described and read using an Envision plate reader (PerkinElmer). IP1 concentrations were determined from a standard curve generated in duplicate.
as §4

[6] = molecular target: T1, human GIP receptor E354Q variant; assay: ERK1/2 phosphorylation (AlphaLISA pERK1/2 Thr202/Tyr204), E354Q GIP receptor; format: cell-based; conditions: read-out: Emax pERK1/2
Method: as §1, §2, §3, §4

[7] = molecular target: T2, human WT GIP receptor (E354); assay: ERK1/2 phosphorylation (AlphaLISA pERK1/2 Thr202/Tyr204), WT GIP receptor; format: cell-based; conditions: read-out: Emax pERK1/2
Method: as §1, §2, §3, §4

[8] = test system: albumin; conditions: cited from earlier work
Text: Understanding the signalling of GIP receptors is essential to elucidating their physiological effects and exploiting this receptor as a drug target. The GIP receptor is often reported to couple to Gαs alone ([Oduori et al., 2020b]). […] This indicates potential coupling to Gαq, as IP1 is a stable by-product of IP3 ([Garbison et al., 2004]). The induction of cAMP accumulation by the endogenous GIP agonists was similar to previous studies ([Hansen et al., 2016]; [Yuliantie et al., 2021]). Tirzep ...

Row | Structure (SMILES) | Emax [1] [%] | EC50 ([2]; E354Q, Cos7, 15 min, DMEM + 0.1% BSA, mean ± s.e.m., n = 3) [nM] | Emax [2] [%] | EC50 ([3]; WT, Cos7, 15 min, DMEM + 0.1% BSA, mean ± s.e.m., n = 3, read-out: pEC50 pCREB (converted)) [nM] | Emax [3] [%] | EC50 ([4]; WT, Cos7, 15 min, DMEM + 0.1% BSA, mean ± s.e.m., n = 3) [nM] | Emax [4] [%] | EC50 ([5]; WT, Cos7, 90 min, 37°C, DMEM + 0.1% BSA + 1% 10 mM LiCl, mean ± s.e.m., n = 5, read-out: pEC50 IP1 (converted)) [nM] | Emax [6] [%] | Emax [7] [%] | albumin binding [8] | Emax ([5]; read-out: Emax IP1, % of maximal response) [%]
1 | CC[C@H](C)[C@H](NC(=O)[C@H](CO)NC(=O)[C@H](Cc1ccc(O)cc1)NC(=O)[C@H](CC(=O)O)NC(=O)[C@H](CO)NC(=O)[C@@H](NC(=O)[C@H](Cc1ccccc1)NC(=O)[C@@H](NC(=O)CNC(=O)[C@H](CCC(=O)O)NC(=O)[C@H](C)NC(=O)[C@@H](N)Cc1ccc(O)cc1)[C@@H](C)O)[C@@H](C)CC)C(=O)N[C@@H](C)C(=O)N[C@@H](CCSC)C(=O)N[C@@H](CC(=O)O)C(=O)N[C@@H](CCCCN)C(=O)N[C@H](C(=O)N[C@@H](Cc1c[nH]cn1)C(=O)N[C@@H](CCC(N)=O)C(=O)N[C@@H](CCC(N)=O)C(=O)N[C@@H](CC(=O)O)C(=O)N[C@@H](Cc1ccccc1)C(=O)N[C@H](C(=O)N[C@@H](CC(N)=O)C(=O)N[C@@H](Cc1c[nH]c2ccccc12)C(=O)N[C@@H](CC(C)C)C(=O)N[C@@H](CC(C)C)C(=O)N[C@@H](C)C(=O)N[C@@H](CCC(N)=O)C(=O)N[C@@H](CCCCN)C(N)=O)C(C)C)[C@@H](C)CC [GIP(1-30)NH2] | 70.7 ± 32.9 | 0.813 | 50.9 ± 1.72 | 0.0631 | 117 ± 8.75 | 1.48 | 97.1 ± 4.56 | 1.62 | 73.9 ± 9.75 | 117 ± 3.91 | – | –
2 | CC[C@H](C)[C@H](NC(=O)[C@H](CC(C)C)NC(=O)[C@H](Cc1c[nH]c2ccccc12)NC(=O)[C@H](CCC(N)=O)NC(=O)[C@@H](NC(=O)[C@H](Cc1ccccc1)NC(=O)[C@H](C)NC(=O)[C@H](CCCCNC(=O)COCCOCCNC(=O)COCCOCCNC(=O)CC[C@H](NC(=O)CCCCCCCCCCCCCCCCCCC(=O)O)C(=O)O)NC(=O)[C@H](CCC(N)=O)NC(=O)[C@H](C)NC(=O)[C@@H](NC(=O)[C@H](CCCCN)NC(=O)[C@H](CC(=O)O)NC(=O)[C@H](CC(C)C)NC(=O)C(C)(C)NC(=O)[C@@H](NC(=O)[C@H](CO)NC(=O)[C@H](Cc1ccc(O)cc1)NC(=O)[C@H](CC(=O)O)NC(=O)[C@H](CO)NC(=O)[C@@H](NC(=O)[C@H](Cc1ccccc1)NC(=O)[C@@H](NC(=O)CNC(=O)[C@H](CCC(=O)O)NC(=O)C(C)(C)NC(=O)[C@@H](N)Cc1ccc(O)cc1)[C@@H](C)O)[C@@H](C)O)[C@@H](C)CC)[C@@H](C)CC)C(C)C)C(=O)N[C@@H](C)C(=O)NCC(=O)NCC(=O)N1CCC[C@H]1C(=O)N[C@@H](CO)C(=O)N[C@@H](CO)C(=O)NCC(=O)N[C@@H](C)C(=O)N1CCC[C@H]1C(=O)N1CCC[C@H]1C(=O)N1CCC[C@H]1C(=O)N[C@@H](CO)C(N)=O [Tirzepatide] | 59.4 ± 34.8 | – | 51.9 ± 8.95 | – | 91.5 ± 10.9 | – | 87.7 ± 2.6 | – | 80.2 ± 17.3 | – | binds to albumin | 54.9
